# Values quoted from earlier work in patent US20020058028A1, “METHOD OF IN SITU DIAGNOSIS BY SPECTROSCOPIC ANALYSIS OF BIOLOGICAL STAIN COMPOSITIONS” (priority 1999, published 2002).
# Like-named read-outs stand apart in the source and are kept apart here.
# Key:
# Schistosoma mansoni = conditions: in vitro
# Staphylococcus aureus = conditions: for active concentration against epidemic strains of methicillin-resistant Staphylococcus aureus: compared with vancomycin
# [1] = test system: human epidermoid carcinoma (A-253) cells
# HeLa cells = conditions: for incubation time to saturation of uptake: 10(−5) M
# [2] = test system: local tumor recurrence in the area of the anastomosis
# Trichoderma Viride = conditions: outside the body
# [3] = test system: microtubule cytoskeleton of cultured cells; conditions: untreated control cells normal
# bladder carcinoma cells = conditions: in vitro; versus Azure C, Methylene violet, Thionin, methylene green, haematoporphyrin
# C. albicans [4] = conditions: energy dose 1.32 J at 2.04 J/cm2
# solid Ehrlich carcinomas = conditions: mice; laser 647 nm and 676 nm
# [5] = test system: influenza or encephalomyelitis viruses; conditions: human blood plasma; plasma proteins not significantly altered
# [6] = test system: several other Candida spp.
# C. albicans [7] = conditions: conditions employed
molecule,measurement,setting,value
CN(C)c1ccc2cc3ccc(N(C)C)cc3nc2c1 [acridine orange],killing upon exposure to light,Schistosoma mansoni,kills
Cc1cc(=[N+](C)C)cc2sc3cc(N(C)C)cc(C)c3nc1-2.[Cl-] [dimethyl methylene blue],active concentration against epidemic strains of methicillin-resistant Staphylococcus aureus,Staphylococcus aureus,lower than that of vancomycin
same,"increase in bactericidal activity on illumination, typical",Staphylococcus aureus,~4 fold
CCCCN1C(=O)C(=C/C=C/C=C2\Oc3ccccc3N2CCCS(=O)(=O)[O-])C(=O)N(CCCC)C1=S.[Na+] [merocyanine 540],white light dose for ninety % reduction of clonogenicity,[1],1.5 J/cm2
CN(C)c1ccc2nc3ccc(=[N+](C)C)cc-3sc2c1 [methylene blue],incubation time to saturation of uptake,HeLa cells; HeLa cells,6 h
same,"cell photoinactivation, comparison",HeLa cells; HeLa cells,higher than that produced by TB
same,concentration at which dark damage was not observed,"HeLa cells; HeLa cells, elevated photoinactivation detected at this concentration",10(−5) M
same,local tumor growth in treated areas,[2]; after PDT-treatment,no local tumor growth within 6 months
same,complications during or after PDT,[2]; experimental or clinical,no experimental or clinical complications
same,killing upon illumination,Trichoderma Viride,kill
same,microtubule network after photodynamic treatment,[3],considerable or severe disorganization of the microtubule network
same,"increase in bactericidal activity on illumination, typical",Staphylococcus aureus,~4 fold
same,tumor necrosis,"small adenocarcinomas; 72 hours after PDT-treatment, proven experimentally",4-5 mm
same,tumors destroyed,small adenocarcinomas; after the second PDT-treatment,6 out of 10
same,carcinomas with inhibited growth,small adenocarcinomas; after the treatment,Four
same,phototoxicity compared with other dyes,bladder carcinoma cells,most phototoxic
same,killing upon exposure to light,Schistosoma mansoni,kills
same,sensitization to killing by GaAs laser light,C. albicans [4],able to sensitize
same,tumor destruction,solid Ehrlich carcinomas,"significant tumor destruction, including complete tumor destruction"
CCNc1cc2[s+]c3cc(NCC)c(C)cc3nc2cc1C.[Cl-] [new methylene blue],active concentration against epidemic strains of methicillin-resistant Staphylococcus aureus,Staphylococcus aureus,lower than that of vancomycin
same,"increase in bactericidal activity on illumination, typical",Staphylococcus aureus,~4 fold
"Cc1cc2nc3ccc(N(C)C)cc3[s+]c2cc1N.[Cl-] [toluidine blue O, 3-amino-7-(dimethylamino)-2-methyl phenothiazin-5-ium chloride]",white light dose for ninety % reduction of clonogenicity,[1],1.0 J/cm2
same,concentration at which dark damage was not observed,HeLa cells,10(−5) M
same,incubation time to saturation of uptake,HeLa cells; HeLa cells,12 h
same,virus inactivation by light in presence of dye,[5],inactivated by light
same,microtubule network after photodynamic treatment,[3],considerable or severe disorganization of the microtubule network
same,sensitization to killing by HeNe laser light,[6],able to sensitize
same,ATP levels after photodynamic treatment,Kluyveromyces marxianus,lowered the ATP levels
same,enzyme inhibition after treatment with dye and light,Kluyveromyces marxianus,"inhibition of alcohol dehydrogenase, cytochrome c oxidase, glyceraldehyde-3-phosphate dehydrogenase and hexokinase"
same,clonogenicity,Kluyveromyces marxianus; photosensitizer with light,induce loss of clonogenicity
CN[C@H](CC(C)C)C(=O)N[C@H]1C(=O)N[C@@H](CC(N)=O)C(=O)N[C@H]2C(=O)N[C@H]3C(=O)N[C@H](C(=O)N[C@H](C(=O)O)c4cc(O)cc(O)c4-c4cc3ccc4O)[C@H](O)c3ccc(c(Cl)c3)Oc3cc2cc(c3O[C@@H]2O[C@H](CO)[C@@H](O)[C@H](O)[C@H]2O[C@H]2C[C@](C)(N)[C@H](O)[C@H](C)O2)Oc2ccc(cc2Cl)[C@H]1O [vancomycin],concentration against epidemic strains of methicillin-resistant Staphylococcus aureus,Staphylococcus aureus; comparator,≥ 0.5 µM
Dihaematoporphyrin ester,photosensitizer effectiveness,C. albicans [7],not an effective photosensitizer
aluminum disulphonated phthalocyanine,sensitization to killing by GaAs laser light,C. albicans [4],not
rhodamine 123,white light dose for ninety % reduction of clonogenicity,[1],1.2 J/cm2
